Experimental data: article PMC8367944, “Phase 1 study of the ATR inhibitor berzosertib in combination with cisplatin in patients with advanced solid tumours” (British Journal of Cancer, 2021)
Entries after “also recorded” stand apart in the source; their conditions may differ. Read-outs that look alike come from different tables or passages of the source.

Assays:
[1] = tested on: patients with advanced solid tumours; test: Phase 1 safety and tolerability: TEAEs (NCI CTCAE v4.0), DLTs, MTD/RP2D; format: in vivo
Experimental: Part B was a single-arm, 3 + 3 dose-escalation Phase 1 study evaluating the safety, tolerability and PK of berzosertib in combination with cisplatin in patients with advanced solid tumours.
Following screening and baseline evaluations, patients received berzosertib i.v. (90 mg/m^2; days 2 and 9) and cisplatin (40 mg/m^2; day 1), administered in 21-day cycles. Based on safety data from two concurrent studies,[14],[15] a 7- to 14-day lead-in period with single doses of berzosertib (140 mg/m^2) alone was also planned.
For the initial dose escalation, the dose of cisplatin was held constant, while the dose of berzosertib was escalated by a maximum of 50% in each cohort. After the berzosertib dose was escalated, the dose of cisplatin could be increased in order to find the maximum-tolerated dose (MTD) of berzosertib in combination with cisplatin; the MTD was defined as the highest dose of berzosertib tolerated in combination with a cisplatin dose between 60 and 100 mg/m^2, inclusive. […] Patients received berzosertib with cisplatin until progressive disease (PD) or unacceptable toxicity.
Safety evaluations (primary endpoint) included continuous assessment of TEAEs, which were graded using National Cancer Institute Common Terminology Criteria for Adverse Events version 4.0. […] Safety was evaluated throughout treatment and was used to inform dose-escalation decisions. […]

[2] = Plasma and urine pharmacokinetics of berzosertib (LC-MS/MS, non-compartmental analysis); format: in vivo, human; conditions: for AUC(0-inf) / clearance / Cmax / half-life / Vd: plasma; for AUC(0-inf): read-out: AUC0–∞, mean (%CV); for clearance: read-out: CL, mean (%CV) (converted); for Cmax: read-out: Cmax, mean (%CV); for Vd: read-out: Vss, mean (%CV)
Experimental: In cycle 1, plasma samples for PK analysis were collected both pre- and post-dose on days 2–5 (pre-dose, 0.5 h before the end of infusion, at the end of infusion, and 0.5, 1, 2, 3, 7, 23, 47, and 71 h after end of infusion) and day 9 (pre-dose). Plasma samples were also collected on day 2 of cycle 2 (pre-dose and 2 h after the end of infusion). Cumulative urine was also collected for PK assessments on days 2 and 3 of cycle 1 (pre-dose to 3, 3–7, 7–11, and 11–23 h). Berzosertib concentrations were quantified using a validated liquid chromatography tandem-mass spectrometry method and plasma PK were characterised by non-compartmental analyses using Phoenix WinNolin 6.4 (Certara USA Inc., Princeton, NJ, USA).
The safety set was defined as all patients who received at least one dose of study drug; patients within the safety set were further classified into those who received at least one dose of the study drug in the lead-in period (lead-in safety set) and those who received at least one dose during the combination period (combination safety set). PK data were collected in the PK analysis set, defined as all enrolled patients who received at least one dose of berzosertib and provided at least one measurable post-dose sample. For efficacy analyses, the full analysis set was used, comprising all enrolled patients who had received a baseline scan, at least one dose of study drug, and had at least one post-baseline disease assessment.
Standard non-compartmental methods were used to determine PK parameters. Continuous variables were summarised using descriptive summary statistics. Categorical variables (e.g. incidence of a TEAE) were summarised using frequency counts and percentages. TEAEs observed were summarised by system organ class and preferred term according to the Medical Dictionary for Regulatory Activities v.18.0 or higher.

ATR = tested on: ATR; design: method as in PMID 25010037; conditions: ATR inhibitor; cited from earlier work
[3] = tested on: patients with advanced solid tumours; conditions: on second infusion of berzosertib; idiosyncratic, no clear relationship to dose; stated as recognised, no reference given; cited from earlier work
[4] = human, intravenous, cycle 1, day 2, berzosertib and cisplatin, berzosertib 90 mg/m^2, n = 2
[5] = human, intravenous, cycle 1, day 2, berzosertib and cisplatin, berzosertib 140 mg/m^2, n = 8
[6] = human, intravenous, cycle 1, day 2, berzosertib and cisplatin, berzosertib 210 mg/m^2, n = 17
[7] = human, iv, 140 mg/m2, lead-in period, berzosertib alone, 140 mg/m^2 i.v., n = 4

For `CNCc1ccc(-c2cc(-c3nc(-c4ccc(S(=O)(=O)C(C)C)cc4)cnc3N)on2)cc1` [berzosertib], the “DLTs during the monotherapy lead-in period” value ([1]; berzosertib 140 mg/m^2 alone, n = 4) was “no DLTs”, the “trends in laboratory results, vital signs or ECG parameters attributable to berzosertib” value ([1]; serum chemistry, haematology, urinalysis) was “no clinically meaningful trends” and the “dose proportionality of plasma exposure” value ([2]; 90–210 mg/m^2, based on mean plasma concentrations and Cmax) was “approximately dose proportional”. The “effect of cisplatin on berzosertib pharmacokinetics” value ([2]; cisplatin given 24 h before berzosertib) was “no apparent effect; also recorded: does not affect the PK profile”, the “mean percentage of berzosertib excreted in the urine” value ([2]; cumulative urine, days 2 and 3 of cycle 1) was 6% and the CL renal ([2]; human, intravenous, cumulative urine, days 2 and 3 of cycle 1, read-out: mean renal clearance (converted)) was 78.3 mL/min. The AUC(0-inf) [2, 4] was 2820 ng·h/mL, the clearance [2, 4] was 1020 mL/min and the Cmax [2, 4] was 458 ng/mL. For the same compound, the half-life ([2]; human, intravenous, cycle 1, day 2, berzosertib and cisplatin, berzosertib 90 mg/m^2, n = 2, read-out: T1/2, mean (%CV) (converted)) was 17 h, the Vd [2, 4] was 1260 L and the AUC(0-inf) [2, 5] was 4870 ng·h/mL. The clearance [2, 5] was 912 mL/min, the Cmax [2, 5] was 854 ng/mL and the Vd [2, 5] was 1060 L. It also gave an AUC(0-inf) [2, 6] of 6740 ng·h/mL, a clearance [2, 6] of 1040 mL/min and a Cmax [2, 6] of 1230 ng/mL. For the same compound, the Vd [2, 6] was 1270 L, the AUC(0-inf) [2, 7] was 5670 ng·h/mL and the clearance [2, 7] was 898 mL/min. It also gave a Cmax [2, 7] of 652 ng/mL, a half-life ([2]; human, intravenous, 140 mg/m^2, berzosertib monotherapy, four patients, read-out: mean terminal elimination half-life (converted)) of roughly 17 h and a half-life ([2]; human, intravenous, 140 mg/m^2, plasma, cycle 1, day 2, berzosertib and cisplatin, berzosertib 140 mg/m^2, n = 8, read-out: T1/2, mean (%CV) (converted)) of 17.5 h. For the same compound, the half-life ([2]; human, intravenous, 210 mg/m^2, plasma, cycle 1, day 2, berzosertib and cisplatin, berzosertib 210 mg/m^2, n = 17, read-out: T1/2, mean (%CV) (converted)) was 17.3 h, the half-life ([2]; human, iv, 140 mg/m2, plasma, lead-in period, berzosertib alone, 140 mg/m^2 i.v., n = 4, read-out: T1/2, mean (%CV) (converted)) was 20.3 h and the IC50 (ATR) was 0.019 µM. The “patients with acute hypersensitivity” value [3] was less than 5%.
